Test results reported in patent EP3858439A1 (priority 2020, dated 2021).
Counter-ions that a name gives are not always drawn.

The molecules below were run against T1, human µ-opioid receptor (Homo sapiens, UniProt P35372) (assay: Binding assay to human µ-opioid receptor ([3H]-DAMGO displacement)). Details: not given.
T1 construct: expressed in transfected cells; host or cells: CHO-K1
Method: Binding assay to human µ-opioid receptor
Transfected CHO-K1 cell membranes (20 µg) were incubated with [^3H]-DAMGO (1 nM) in assay buffer containing Tris-HCl 50 mM, MgCl2 5 mM at pH 7.4.
Plates were incubated at 27 °C for 60 min. After the incubation period, the reaction mixture was then transferred to MultiScreen HTS, FC plates (Millipore), filtered and plates were washed 3 times with ice-cold 10 mM Tris-HCl (pH 7.4).
Filters were dried and counted at approximately 40% efficiency in a MicroBeta scintillation counter (Perkin-Elmer) using EcoScint liquid scintillation cocktail.

T1 sequence (P35372 whole entry): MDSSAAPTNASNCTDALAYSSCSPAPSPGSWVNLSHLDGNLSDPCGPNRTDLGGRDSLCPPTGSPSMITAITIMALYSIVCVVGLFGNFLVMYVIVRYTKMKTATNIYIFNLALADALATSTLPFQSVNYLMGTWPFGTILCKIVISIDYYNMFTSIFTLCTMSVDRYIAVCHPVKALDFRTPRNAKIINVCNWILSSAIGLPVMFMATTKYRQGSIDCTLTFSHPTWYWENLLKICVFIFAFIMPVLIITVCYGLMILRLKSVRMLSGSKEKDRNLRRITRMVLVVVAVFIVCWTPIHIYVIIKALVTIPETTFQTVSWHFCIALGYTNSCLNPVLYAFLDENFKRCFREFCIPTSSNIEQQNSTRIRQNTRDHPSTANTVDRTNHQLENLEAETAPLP

CN(C)C1(c2ccccc2)CCN(C(=O)[C@@H](CN)[C@@H]2CCCc3ccccc32)CC1 (racemic) [Example 77, (RS)-3-Amino-1-(4-(dimethylamino)-4-phenylpiperidin-1-yl)-2-((SR)-1,2,3,4-tetrahydronaphthalen-1-yl)propan-1-one] and CN(C)C1(c2ccccc2)CCN(C(=O)C(CN)Cc2ccccc2)CC1 (stereo not shown) [Example 28, 3-amino-2-benzyl-1-(4-(dimethylamino)-4-phenylpiperidin-1-yl)propan-1-one dihydrochloride] cannot be ordered by Ki: under 100 nM for the first, under 100 nM for the second.

CNC[C@H](C(=O)N1CCC(c2ccccc2)(N(C)C)CC1)[C@H](C)c1ccccc1 [Example 87, (2R,3S)-1-(4-(dimethylamino)-4-phenylpiperidin-1-yl)-2-((methylamino)methyl)-3-phenylbutan-1-one] and CNC[C@@H](C(=O)N1CCC(c2ccccc2)(N(C)C)CC1)[C@H](C)c1ccccc1 [Example 85, (2S,3S)-1-(4-(Dimethylamino)-4-phenylpiperidin-1-yl)-2-((methylamino)methyl)-3-phenylbutan-1-one] fall in the same range of Ki: 100 to 500 nM for the first, 100 to 500 nM for the second.

Compared with CNCCC(Cc1ccccc1)C(=O)N1CCC(c2ccccc2)(N(C)C)CC1 (stereo not shown) [Example 31, 2-benzyl-1-(4-(dimethylamino)-4-phenylpiperidin-1-yl)-4-(methylamino)butan-1-one dihydrochloride], CNC[C@H](Cc1ccccc1)C(=O)N1CCC(c2ccccc2)(N(C)C)CC1 [Example 79, (S)-2-Benzyl-1-(4-(dimethylamino)-4-phenylpiperidin-1-yl)-3-(methylamino)propan-1-one dihydrochloride] is lower in Ki: 100 to 500 nM for the first, under 100 nM for the second.

First: CNCC(Cc1ccccc1F)C(=O)N1CCC(c2ccccc2)(N(C)C)CC1 (stereo not shown) [Example 57, 1-(4-(dimethylamino)-4-phenylpiperidin-1-yl)-2-(2-fluorobenzyl)-3-(methylamino)propan-1-one dihydrochloride]
Second: CNCC(Cc1ccccc1C#N)C(=O)N1CCC(c2ccccc2)(N(C)C)CC1 (stereo not shown) [Example 55, 2-(3-(4-(dimethylamino)-4-phenylpiperidin-1-yl)-2-((methylamino)methyl)-3-oxopropyl)benzonitrile dihydrochloride]
The Ki of the first is lower: under 100 nM for the first, 100 to 500 nM for the second. The first binds more tightly here.

First: CN(C)C1(c2ccccc2)CCN(C(=O)[C@H](CN)C(C)(C)c2ccccc2)CC1 [Example 5, (S)-2-(aminomethyl)-1-(4-(dimethylamino)-4-phenylpiperidin-1-yl)-3-methyl-3-phenylbutan-1-one]
Second: CNCC(Cc1ccccc1)C(=O)N1CCC(c2ccccc2)(N(C)C)CC1 (stereo not shown) [Example 70, 2-benzyl-1-(4-(dimethylamino)-4-phenylpiperidin-1-yl)-3-(methylamino)propan-1-one]
The Ki of the first is lower: under 100 nM for the first, 100 to 500 nM for the second. The first binds more tightly here.

CNCC(Cc1ccccc1)C(=O)N1CCC(NC)(c2cccc(O)c2)CC1 (stereo not shown) [Example 44, 2-benzyl-1-(4-(3-hydroxyphenyl)-4-(methylamino)piperidin-1-yl)-3-(methylamino)propan-1-one dihydrochloride] and CNCC(Cc1ccccc1)C(=O)N1CCC(c2cccc(O)c2)(N(C)C)CC1 (stereo not shown) [Example 34, 2-benzyl-1-(4-(dimethylamino)-4-(3-hydroxyphenyl)piperidin-1-yl)-3-(methylamino)propan-1-one dihydrochloride] cannot be ordered by Ki: under 100 nM for the first, under 100 nM for the second.

CNC1(c2ccccc2)CCN(C(=O)[C@H](CN)[C@@H](C)c2ccccc2)CC1 [Example 9, (2S,3R)-2-(aminomethyl)-1-(4-(methylamino)-4-phenylpiperidin-1-yl)-3-phenylbutan-1-one] and CCNCC(Cc1ccccc1)C(=O)N1CCC(c2ccccc2)(N(C)C)CC1 (stereo not shown) [Example 30, 2-benzyl-1-(4-(dimethylamino)-4-phenylpiperidin-1-yl)-3-(ethylamino)propan-1-one dihydrochloride] cannot be ordered by Ki: under 100 nM for the first, under 100 nM for the second.

Same assay, conditions: Table 2; transfected CHO-K1 cell membranes, [3H]-DAMGO 1 nM, 60 min at 27 °C; read-out: Binding µ

CC[C@@H](c1ccccc1)[C@@H](CNC)C(=O)N1CCC(NC)(c2ccccc2)CC1 [Example 17, (2S,3R)-1-(4-(methylamino)-4-phenylpiperidin-1-yl)-2-((methylamino)methyl)-3-phenylpentan-1-one dihydrochloride] and CC[C@@H](c1ccccc1)[C@@H](CN)C(=O)N1CCC(NC)(c2ccccc2)CC1 [Example 6, (2S,3R)-2-(aminomethyl)-1-(4-(methylamino)-4-phenylpiperidin-1-yl)-3-phenylpentan-1-one dihydrochloride] cannot be ordered by Ki: under 100 nM for the first, under 100 nM for the second.

CNC[C@@H](C(=O)N1CCC(c2cccc(O)c2)(N(C)C)CC1)[C@@H](C)c1ccccc1 [Example 16, (2S,3R)-1-(4-(dimethylamino)-4-(3-hydroxyphenyl)piperidin-1-yl)-2-((methylamino)methyl)-3-phenylbutan-1-one dihydrochloride] and CNC[C@@H](C(=O)N1CCC(c2cccc(F)c2)(N(C)C)CC1)[C@@H](C)c1ccccc1 [Example 3, (2S,3R)-1-(4-(dimethylamino)-4-(3-fluorophenyl)piperidin-1-yl)-2-((methylamino)methyl)-3-phenylbutan-1-one] cannot be ordered by Ki: under 100 nM for the first, under 100 nM for the second.

C[C@@H](c1ccccc1)[C@@H](CN)C(=O)N1CCC(c2ccccc2)(N(C)C)CC1 [Example 7, (2S,3R)-2-(aminomethyl)-1-(4-(dimethylamino)-4-phenylpiperidin-1-yl)-3-phenylbutan-1-one dihydrochloride] and CNC[C@@H](C(=O)N1CCC(c2ccccc2)(N(C)C)CC1)[C@@H](C)c1ccccc1 [Example 1, (2S,3R)-1-(4-(Dimethylamino)-4-phenylpiperidin-1-yl)-2-((methylamino)methyl)-3-phenylbutan-1-one dihydrochloride] cannot be ordered by Ki: under 100 nM for the first, under 100 nM for the second.

CNCC(Cc1ccccc1)C(=O)N1CCC(c2cccc(OC)c2)(N(C)C)CC1 (stereo not shown) [Example 41, 2-benzyl-1-(4-(dimethylamino)-4-(3-methoxyphenyl)piperidin-1-yl)-3-(methylamino)propan-1-one dihydrochloride] and CNC[C@@H](C(=O)N1CCC(c2ccccc2)(N(C)C)CC1)[C@@H](C)c1cccc(F)c1 [Example 15, (2S,3R)-1-(4-(dimethylamino)-4-phenylpiperidin-1-yl)-3-(3-fluorophenyl)-2-((methylamino)methyl)butan-1-one] cannot be ordered by Ki: under 100 nM for the first, under 100 nM for the second.

CC[C@@H](c1cccc(F)c1)[C@@H](CN)C(=O)N1CCC(NC)(c2ccccc2)CC1 [Example 11, (2S,3R)-2-(aminomethyl)-3-(3-fluorophenyl)-1-(4-(methylamino)-4-phenylpiperidin-1-yl)pentan-1-one] and CC[C@@H](c1cccc(F)c1)[C@@H](CNC)C(=O)N1CCC(NC)(c2ccccc2)CC1 [Example 20, (2S,3R)-3-(3-fluorophenyl)-1-(4-(methylamino)-4-phenylpiperidin-1-yl)-2-((methylamino)methyl)pentan-1-one] cannot be ordered by Ki: under 100 nM for the first, under 100 nM for the second.

CC[C@@H](c1ccccc1)[C@@H](CNC)C(=O)N1CCC(NC)(c2ccc(F)cc2)CC1 [Example 65, (2S,3R)-1-(4-(4-fluorophenyl)-4-(methylamino)piperidin-1-yl)-2-((methylamino)methyl)-3-phenylpentan-1-one] and CC[C@@H](c1ccccc1)[C@@H](CNC)C(=O)N1CCC(NC)(c2ccc(OC)cc2)CC1 [Example 22, (2S,3R)-1-(4-(4-methoxyphenyl)-4-(methylamino)piperidin-1-yl)-2-((methylamino)methyl)-3-phenylpentan-1-one dihydrochloride] cannot be ordered by Ki: under 100 nM for the first, under 100 nM for the second.

Compared with CNC[C@@H](C(=O)N1CCC(c2ccccc2)(N(C)C)CC1)[C@@H](C)c1ccccc1F [Example 14, (2S,3R)-1-(4-(dimethylamino)-4-phenylpiperidin-1-yl)-3-(2-fluorophenyl)-2-((methylamino)methyl)butan-1-one dihydrochloride], CNC[C@@H](C(=O)N1CCC(c2ccc(F)cc2)(N(C)C)CC1)[C@@H](C)c1ccccc1 [Example 2, (2S,3R)-1-(4-(dimethylamino)-4-(4-fluorophenyl)piperidin-1-yl)-2-((methylamino)methyl)-3-phenylbutan-1-one] is lower in Ki: 100 to 500 nM for the first, under 100 nM for the second. The second binds more tightly here.

CC[C@@H](c1cccc(Cl)c1)[C@@H](CNC)C(=O)N1CCC(c2ccccc2)(N(C)C)CC1 [Example 67, (2S,3R)-3-(3-chlorophenyl)-1-(4-(dimethylamino)-4-phenylpiperidin-1-yl)-2-((methylamino)methyl)pentan-1-one] and CC[C@@H](c1cccc(F)c1)[C@@H](CNC)C(=O)N1CCC(c2ccccc2)(N(C)C)CC1 [Example 21, (2S,3R)-1-(4-(dimethylamino)-4-phenylpiperidin-1-yl)-3-(3-fluorophenyl)-2-((methylamino)methyl)pentan-1-one] cannot be ordered by Ki: under 100 nM for the first, under 100 nM for the second.

CC[C@@H](c1cccc(Cl)c1)[C@@H](CNC)C(=O)N1CCC(NC)(c2ccc(F)cc2)CC1 [Example 69, (2S,3R)-3-(3-chlorophenyl)-1-(4-(4-fluorophenyl)-4-(methylamino)piperidin-1-yl)-2-((methylamino)methyl)pentan-1-one] and CNC[C@@H](C(=O)N1CCC(c2ccc(OC)cc2)(N(C)C)CC1)[C@@H](C)c1ccccc1 [Example 12, (2S,3R)-1-(4-(dimethylamino)-4-(4-methoxyphenyl)piperidin-1-yl)-2-((methylamino)methyl)-3-phenylbutan-1-one] cannot be ordered by Ki: under 100 nM for the first, under 100 nM for the second.

Compared with CC[C@@H](c1ccccc1)[C@@H](CN)C(=O)N1CC(c2ccccc2)(N(C)C)C1 [Example 10, (2S,3R)-2-(aminomethyl)-1-(3-(dimethylamino)-3-phenylazetidin-1-yl)-3-phenylpentan-1-one], C[C@@H](N)[C@@H](Cc1ccccc1)C(=O)N1CCC(c2ccccc2)(N(C)C)CC1 [Example 49, (2R,3R)-3-amino-2-benzyl-1-(4-(dimethylamino)-4-phenylpiperidin-1-yl)butan-1-one dihydrochloride] is lower in Ki: over 500 nM for the first, 100 to 500 nM for the second.
